In patent publication US20110312973A1, “SOLID COMPOSITIONS” (priority 2010, published 2011):

Test: Aqueous solubility
Assay type: physicochemical

Question: Which aqueous solubility does the source give for `Cc1cnc(C(=O)N[C@H]2CCCCC/C=C\[C@@H]3C[C@@]3(C(=O)NS(=O)(=O)C3CC3)NC(=O)[C@@H]3C[C@@H](Oc4nc5ccccc5c5ccccc45)CN3C2=O)cn1` [Compound I, (2R,6S,13aS,14aR,16aS,Z)-N-(cyclopropylsulfonyl)-6-(5-methylpyrazine-2-carboxamido)-5,16-dioxo-2-(phenanthridin-6-yloxy)-1,2,3,5,6,7,8,9,10,11,13a,14,14a,15,16,16a-hexadecahydrocyclopropa[e]pyrrolo[1,2-a][1,4]diazacyclopentadecine-14a-carboxamide] here?
Answer: low aqueous solubility
